From patent US9090576B2, “2-substituted-p-quinone derivatives for treatment of oxidative stress diseases” (Edison Pharmaceuticals, Inc., priority 2008, dated 2015)

Columns and labels:
Assay type in all cases: cell-based
[1] = test system: human dermal fibroblasts from LHON patients; test: Rescue of BSO-stressed fibroblasts from LHON patients (screen as Example A); conditions: Fibroblast, BSO-stressed LHON fibroblasts (GM03858), less than about 150 nM, read-out: EC50, protection against LHON
Procedure, shortened: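 LHON patient fibroblasts (Coriell GM03858) at 3,000 cells/well were pre-treated overnight with compounds serially diluted from a 150 μM master solution. Surviving cells were stained with 1.2 μM Calcein AM for 50-70 min at RT and read by fluorescence (485/525 nm), giving EC50.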

[2] = test system: Human dermal fibroblasts from Friedreich's Ataxia patients; test: Rescue of BSO-stressed FRDA fibroblasts (Calcein AM viability); conditions: BSO-stressed FRDA fibroblasts (GM04078), less than about 150 nM, read-out: EC50, protection against FRDA
Procedure, shortened: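 Patient FRDA fibroblasts (GM04078) seeded at 3,000 cells/well, given serially diluted compound from a 150 μM master solution, then stressed next day with 1 mM BSO.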

[3] = test system: human dermal fibroblasts from CoQ10 deficient patients; test: Rescue of BSO-stressed fibroblasts from CoQ10 deficient patients (screen similar to Example A); conditions: Fibroblast, BSO-stressed fibroblasts from CoQ10 deficient patients harboring a CoQ2 mutation, less than about 150 nM, read-out: EC50, protection against CoQ10 deficiency
Description: A culture with FRDA fibroblasts was started from a 1 ml vial with approximately 500,000 cells stored in liquid nitrogen. Cells were propagated in 10 cm cell culture dishes by splitting every third day in a ratio of 1:3 until nine plates were available. Once confluent, fibroblasts were harvested. For 54 micro titer plates (96 well-MTP) a total of 14.3 million cells (passage eight) were re-suspended in 480 ml medium, corresponding to 100 μl medium with 3,000 cells/well. The remaining cells were distributed in 10 cm cell culture plates (500,000 cells/plate) for propagation. The plates were incubated overnight at 37° C. in an atmosphere with 95% humidity and 5% CO2 to allow attachment of the cells to the culture plate.
MTP medium (243 μl) was added to a well of the microtiter plate. The test compounds were unfrozen, and 7.5 μl of a 5 mM stock solution was dissolved in the well containing 243 μl medium, resulting in a 150 μM master solution. Serial dilutions from the master solution were made. The period between the single dilution steps was kept as short as possible (generally less than 1 second).
Plates were kept overnight in the cell culture incubator. The next day, 10 μl of a 10 mM BSO solution were added to the wells, resulting in a 1 mM final BSO concentration. Forty-eight hours later, three plates were examined under a phase-contrast microscope to verify that the cells in the 0% control (wells E1-H1) were clearly dead. The medium from all plates was discarded, and the remaining liquid was removed by gently tapping the plate inversed onto a paper towel.
100 μl of PBS containing 1.2 μM Calcein AM were then added to each well. The plates were incubated for 50-70 minutes at room temperature. After that time the PBS was discarded, the plate gently tapped on a paper towel and fluorescence (excitation/emission wavelengths of 485 nm and 525 nm, respectively) was read on a Gemini fluorescence reader. Data was imported into Microsoft Excel (EXCEL is a registered trademark of Microsoft Corporation for a spreadsheet program) and used to calculate the EC50 concentration for each compound.
Compounds of the invention were tested using a screen similar to the one described in Example A, but substituting FRDA cells with cells obtained from CoQ10 deficient patients harboring a CoQ2 mutation. The compounds were tested for their ability to rescue human dermal fibroblasts from CoQ10 deficient patients from oxidative stress.

[4] = test system: human dermal fibroblasts from Huntington's patients; test: Rescue of BSO-stressed fibroblasts from Huntington's patients (screen as Example A); conditions: Fibroblast, BSO-stressed Huntington's fibroblasts (GM 04281), less than about 150 nM, read-out: EC50, protection against Huntington's
Procedure, shortened: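 Coriell Huntington's line GM 04281 plated at 3,000 cells/well and attached overnight at 37 °C. Survival was read by Calcein AM (1.2 μM, 50-70 min, RT) fluorescence at 485/525 nm, giving EC50.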

[5] = test system: human dermal fibroblasts from Parkinson's Disease patients; test: Rescue of BSO-stressed fibroblasts from Parkinson's Disease patients (screen as Example A); conditions: Fibroblast, BSO-stressed Parkinson's Disease fibroblasts (AG20439), less than about 150 nM, read-out: EC50, protection against PD
Procedure, shortened: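 Dermal fibroblasts from a Parkinson's Disease patient (Coriell AG20439) were plated at 3,000 cells/well, attached overnight and pre-incubated overnight with serially diluted compounds (150 μM master solution). Survival was read by 1.2 μM calcein AM (50–70 min, RT, 485/525 nm fluorescence) and converted to EC50.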

Measured: EC50

CC1=C(C)C(=O)C(CCCC(=O)NCc2ccccc2Cl)=C(C)C1=O [N-(2-chlorobenzyl)-4-(2,4,5-trimethyl-3,6-dioxocyclohexa-1,4-dienyl)butanamide]
< 0.15 µM: [1] | [2] | [3] | [4] | [5]

CC1=C(C)C(=O)C(CCCC(=O)NCCc2ccccc2Cl)=C(C)C1=O [N-(2-chlorophenethyl)-4-(2,4,5-trimethyl-3,6-dioxocyclohexa-1,4-dienyl)butanamide]
< 0.15 µM: [1] | [2] | [3] | [4] | [5]

CC1=C(C)C(=O)C(CCCC(=O)Nc2ccccc2Cl)=C(C)C1=O [N-(2-chlorophenyl)-4-(2,4,5-trimethyl-3,6-dioxocyclohexa-1,4-dienyl)butanamide]
< 0.15 µM: [1] | [2] | [3] | [4] | [5]

CC1=C(C)C(=O)C(CCCC(=O)NCCc2ccccc2F)=C(C)C1=O [N-(2-fluorophenethyl)-4-(2,4,5-trimethyl-3,6-dioxocyclohexa-1,4-dienyl)butanamide]
< 0.15 µM: [1] | [2] | [3] | [4] | [5]

CC1=C(C)C(=O)C(CCCC(=O)Nc2ccccc2F)=C(C)C1=O [N-(2-fluorophenyl)-4-(2,4,5-trimethyl-3,6-dioxocyclohexa-1,4-dienyl)butanamide]
< 0.15 µM: [1] | [2] | [3] | [4] | [5]

COc1ccccc1NC(=O)CCCC1=C(C)C(=O)C(C)=C(C)C1=O [N-(2-methoxyphenyl)-4-(2,4,5-trimethyl-3,6-dioxocyclohexa-1,4-dienyl)butanamide]
< 0.15 µM: [1] | [2] | [3] | [4] | [5]

COc1ccc(NC(=O)CCCC2=C(C)C(=O)C(C)=C(C)C2=O)cc1OC [N-(3,4-dimethoxyphenyl)-4-(2,4,5-trimethyl-3,6-dioxocyclohexa-1,4-dienyl)butanamide]
< 0.15 µM: [1] | [2] | [3] | [4] | [5]

CC1=C(C)C(=O)C(CCCC(=O)Nc2cccc(Cl)c2)=C(C)C1=O [N-(3-chlorophenyl)-4-(2,4,5-trimethyl-3,6-dioxocyclohexa-1,4-dienyl)butanamide]
< 0.15 µM: [1] | [2] | [3] | [4] | [5]

CC1=C(C)C(=O)C(CCCC(=O)NCCc2cccc(F)c2)=C(C)C1=O [N-(3-fluorophenethyl)-4-(2,4,5-trimethyl-3,6-dioxocyclohexa-1,4-dienyl)butanamide]
< 0.15 µM: [1] | [2] | [3] | [4] | [5]

COc1cccc(NC(=O)CCCC2=C(C)C(=O)C(C)=C(C)C2=O)c1 [N-(3-methoxyphenyl)-4-(2,4,5-trimethyl-3,6-dioxocyclohexa-1,4-dienyl)butanamide]
< 0.15 µM: [1] | [2] | [3] | [4] | [5]

CC1=C(C)C(=O)C(CCCC(=O)Nc2ccc(C(F)(F)F)cc2)=C(C)C1=O [N-(4-(trifluoromethyl)phenyl)-4-(2,4,5-trimethyl-3,6-dioxocyclohexa-1,4-dienyl)butanamide]
< 0.15 µM: [1] | [2] | [3] | [4] | [5]

CC1=C(C)C(=O)C(CCCC(=O)NCc2ccc(Cl)cc2)=C(C)C1=O [N-(4-chlorobenzyl)-4-(2,4,5-trimethyl-3,6-dioxocyclohexa-1,4-dienyl)butanamide]
< 0.15 µM: [1] | [2] | [3] | [4] | [5]

CC1=C(C)C(=O)C(CCCC(=O)NCCc2ccc(Cl)cc2)=C(C)C1=O [N-(4-chlorophenethyl)-4-(2,4,5-trimethyl-3,6-dioxocyclohexa-1,4-dienyl)butanamide]
< 0.15 µM: [1] | [2] | [3] | [4] | [5]

CC1=C(C)C(=O)C(CCCC(=O)N(C)c2ccc(Cl)cc2)=C(C)C1=O [N-(4-chlorophenyl)-N-methyl-4-(2,4,5-trimethyl-3,6-dioxocyclohexa-1,4-dienyl)butanamide]
< 0.15 µM: [1] | [2] | [3] | [4] | [5]

CC1=C(C)C(=O)C(CCCC(=O)Nc2ccc(C#N)cc2)=C(C)C1=O [N-(4-cyanophenyl)-4-(2,4,5-trimethyl-3,6-dioxocyclohexa-1,4-dienyl)butanamide]
< 0.15 µM: [1] | [2] | [3] | [4] | [5]

CC1=C(C)C(=O)C(CCCC(=O)NCc2ccc(F)cc2)=C(C)C1=O [N-(4-fluorobenzyl)-4-(2,4,5-trimethyl-3,6-dioxocyclohexa-1,4-dienyl)butanamide]
< 0.15 µM: [1] | [2] | [3] | [4] | [5]

CC1=C(C)C(=O)C(CCCC(=O)NCCc2ccc(F)cc2)=C(C)C1=O [N-(4-fluorophenethyl)-4-(2,4,5-trimethyl-3,6-dioxocyclohexa-1,4-dienyl)butanamide]
< 0.15 µM: [1] | [2] | [3] | [4] | [5]

CC1=C(C)C(=O)C(CCCC(=O)Nc2ccc(F)cc2)=C(C)C1=O [N-(4-fluorophenyl)-4-(2,4,5-trimethyl-3,6-dioxocyclohexa-1,4-dienyl)butanamide]
< 0.15 µM: [1] | [2] | [3] | [4] | [5]

CC1=C(C)C(=O)C(CCCC(=O)N(C)c2ccc(F)cc2)=C(C)C1=O [N-(4-fluorophenyl)-N-methyl-4-(2,4,5-trimethyl-3,6-dioxocyclohexa-1,4-dienyl)butanamide]
< 0.15 µM: [1] | [2] | [3] | [4] | [5]
